*1 amine or outer side, *2 acyl side, *3 side chain or, on linkers, in order; H or OH if unused. Where a SMILES comes first, the peptide text is derived from it. Bridges are numbered along the chain shown (N, C = ends). Where no end group is shown, it is not given here. [ ]: non-standard residue; d: D form. The star is where a group is joined. NH(CH2CH2O)2(CH2)6Cl = ClCCCCCCOCCOCCN*; oXylylene = c1ccc(C[*:2])c(C[*:1])c1; Suc = O=C(CCC(=O)[*:2])[*:1]; Carboxymethyl = O=C(O)C*; Pent4ynoyl = C#CCCC(=O)*
Tests used:
HeLa-htt103Q cells [1] = assay: Htt aggregate assay; assay type: cell-based
Method: Along with proteasomal degradation, autophagy is the major pathway by which aggregated proteins are removed from the cytoplasm.
HeLa-htt103Q cells were cultured as described previously.^60 For the Htt103Q aggregate assay, cells were fixed with 2% PFA in PBS and CFP-positive aggregates […] were counted via fluorescence microscopy by an observer blinded to experimental condition.

GFP-LC3 transgenic mice [2] = conditions: background; 20 mg/kg; cited from earlier work
HeLa cells = assay: Autophagy induction judged by p62 and LC3 immunoblots together; assay type: cell-based; conditions: HeLa cells; for concentration at which autophagy induction (p62 degradation and LC3 lipidation) was observed: immunoblot, 3 hour treatment
Method in brief: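 HeLa cells exposed to peptide (acetyl N-cap, C-terminal amide) for 3 h in acidified OPTI-MEM, then lysed and immunoblotted for p62 and LC3. Activity is the lowest concentration giving both p62 degradation and LC3-I to LC3-II conversion, scored semi-quantitatively.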

[3] = background; cited from earlier work
HeLa-htt103Q cells [4] = conditions: 20 μM; previously shown; cited from earlier work
GFP-LC3 transgenic mice [5] = assay: GFP-LC3 puncta in muscle tissue of GFP-LC3 transgenic mice; assay type: in vivo; conditions: for autophagy induction in vivo (GFP-LC3 puncta in muscle), result in words: i.p. injection, muscle tissue after 6 hours, Tat-11mer 15 mg/kg, D-(Tat-11mer) 15 mg/kg, DD5-o 15, 30 mg/kg
Method: To show whether Tat-11mer and DD5-o have similar in vivo activity, we tested their ability to induce autophagy in GFP-LC3 transgenic mice^59 as described.^10 Peptides were delivered via intraperitoneal injection, and after 6 hours, muscle tissue was collected. GFP-LC3 puncta were imaged in thin sections and counted by an observer blinded to experimental condition (FIG. 10, a,b).
(§1) HeLa/GFP-LC3 cells generated as previously shown,^10 treated with peptides for 3 hour as described above. […] After 6 h, mice were sacrificed and fixed by perfusion with 4% PFA in PBS. Tissues were fixed in 4% PFA overnight, 15% sucrose for 4 hours, and 30% sucrose overnight before frozen sections were prepared and used for fluorescence microscopy analysis as described.^16 GFP-LC3 puncta were quantified per 2500 μm^2 of tissue. Animal experiments were approved by the UTSW Institutional Animal Care Use Committee and performed in accordance with institutional guidelines.

HeLa/GFP-LC3 cells = assay: GFP-LC3 puncta assay with and without bafilomycin A1; assay type: cell-based
Method: as §1

[6] = test system: HaLo-GFP-Mito+mCherry-DHFR HeLa cells; assay: Chloroalkane Penetration Assay (CAPA); assay type: in vitro ADME; conditions: flow cytometry
From the text: FIGS. 19A-19C. Chloroalkane Penetration Assay quantitates relative cytosolic access of exogenously added DD5-o. 19A. Schematic showing the experimental procedure of CAPA, which uses a HaloEnzyme-GFP-expressing HeLa cell line. […] For CAPA, cells are pre-treated with vehicle or peptide, washed, and chased with HTag-TAMRA. Cells treated with cell-penetrant molecules have had their Haloenzyme blocked, thus preventing the HTag-TAMRA from covalently labeling the cells. 19B. Representative images of cells after CAPA, showing Haloenzyme-GFP fluorescence, Halotag-TAMRA fluorescence and the overlay of the two. […] 19C. […]
The Chloroalkane Penetration Assay is described in detail in U.S. Provisional Application No. 62/424,955, filed Nov. […] Following this incubation period, the amount of unreacted Haloenzyme was measured by chasing with a Haloligand-bearing dye (here, Htag-TAMRA). The relative amount of red cellular fluorescence after this chase was then quantified by flow cytometry. […] We evaluated CAPA with HTag-cTMP, a small molecule previously used as a tool for cytosolic protein localization.^71 As quantitated by flow cytometry, we observed inhibition of the HTag-TAMRA signal when cells were pre-incubated with HTag-cTMP, and this inhibition was dose-dependent with respect to amount of the HTag-cTMP used in the pre-incubation step. […]

For “YGRKKRRQRRRGGTNVFNATFEIWHDGEFGT [Tat-Beclin 1]”, the “activity in htt103Q aggregate assay” value (HeLa-htt103Q cells [1]; 12.5 μM) is listed as “no activity”, the “autophagy induction in mice, result in words” value (GFP-LC3 transgenic mice [2]) is listed as “induces autophagy when administered to mice at 20 mg/kg” and the “concentration at which autophagy induction (p62 degradation and LC3 lipidation) was observed” value (HeLa cells) is listed as 10 µM. For the same compound, the “concentration at which autophagic flux is significantly increased in cell culture” value [3] was 10 µM and the “number of small and large htt103Q aggregates” value (HeLa-htt103Q cells [4]) was “decrease the number of small, but not large, htt103Q aggregates”.

With “(pa)-VcNAcFHIWH (Pent4ynoyl-V[dC]NA[dC]FHIWH; linker 2-5 via ortho‑xylene (inferred); not fully specified (C-terminus); printed as (pa)-VcNAcFHIWH) [LL5-o, ortho-xylene linker; stereoisomer with two L-cysteines, negative control]” the “clearance of htt103Q aggregates by control peptides” value (HeLa-htt103Q cells [1]; equimolar concentrations) was “no significant clearance of aggregates” and the “autophagy induction in vivo (GFP-LC3 puncta in muscle), result in words” value (shortened to “autophagy induction in vivo”) (GFP-LC3 transgenic mice [5]) was “no effect”.

In the case of C#CCCC(=O)N[C@H](C(=O)N[C@@H]1CSCc2ccccc2CSC[C@H](C(=O)N[C@@H](Cc2ccccc2)C(=O)N[C@@H](Cc2cnc[nH]2)C(=O)N[C@H](C(=O)N[C@@H](Cc2c[nH]c3ccccc23)C(=O)N[C@@H](Cc2cnc[nH]2)C(N)=O)[C@@H](C)CC)NC(=O)[C@H](C)NC(=O)[C@H](CC(N)=O)NC1=O)C(C)C [DD5-o, (pa)-VcNAcFHIWH] (Pent4ynoyl-V[dC]NA[dC]FHIWH-NH2; linker 2-5 via oXylylene), the “percentage of cells with small htt103Q aggregates and number of small aggregates per cell” value (HeLa-htt103Q cells [1]; 20 μM) is reported as “significant decrease”, the “concentration at which autophagy was induced (GFP-LC3 puncta)” value (HeLa/GFP-LC3 cells; 3 hours in serum-free media) is reported as 10 µM and the “concentration at which autophagy induction (p62 degradation and LC3 lipidation) was observed” value (HeLa cells) is reported as 20 µM. For the same compound, the “autophagy induction, result in words” value (HeLa cells; p62 and LC3 immunoblots) was “nearly equal potency” and the “autophagy induction in vivo” value (GFP-LC3 transgenic mice [5]) was “induced autophagy at 15 and 30 mg/kg in a dose-dependent manner”.

For “Tat-11mer: eleven residues derived from Beclin 1, with a Gly-Gly linker and Tat sequence of the N-terminus (SEQ ID NO: 63) (Ac-YGRKKRRQRRRGGVWNATFHIWHD-NH2)”, the “percentage of cells with small htt103Q aggregates and number of small aggregates per cell” value (HeLa-htt103Q cells [1]; 10 μM) was “significant decrease”, the “fold more potent activation of autophagy (GFP-LC3 puncta)” value (HeLa/GFP-LC3 cells; activity at 10 μM similar to DD5-o at 40 μM) was “roughly 4 fold” and the “concentration at which autophagy induction (p62 degradation and LC3 lipidation) was observed” value (HeLa cells) was 5 µM. The “in vivo potency relative to full-length Tat-Beclin 1” value (GFP-LC3 transgenic mice [5]; equimolar doses) was 2- to 4 fold and the “autophagy induction in vivo” value (GFP-LC3 transgenic mice [5]) was “largest increase in autophagosome formation”.

For CC[C@H](C)[C@H](NC(=O)[C@H](Cc1c[nH]cn1)NC(=O)[C@H](Cc1ccccc1)NC(=O)[C@@H](CSCC(=O)O)NC(=O)[C@H](C)NC(=O)[C@H](CC(N)=O)NC(=O)[C@@H](CSCC(=O)O)NC(=O)[C@@H](NC(=O)CCC(=O)NCCOCCOCCCCCCCl)C(C)C)C(=O)N[C@@H](Cc1c[nH]c2ccccc12)C(=O)N[C@@H](Cc1c[nH]cn1)C(N)=O [HTag-DD5-neg, (HTag)-VcNAcFHIWH] ({NH(CH2CH2O)2(CH2)6Cl-Suc}-V[dC](Carboxymethyl)NA[dC](Carboxymethyl)FHIWH-NH2), the “inhibition of HTag-TAMRA fluorescence (cytosolic access), result in words” value [6] was “little inhibition of HTag-TAMRA fluorescence”.

For CC[C@H](C)[C@H](NC(=O)[C@H](Cc1c[nH]cn1)NC(=O)[C@H](Cc1ccccc1)NC(=O)[C@H]1CSCc2ccccc2CSC[C@@H](NC(=O)[C@@H](NC(=O)CCC(=O)NCCOCCOCCCCCCCl)C(C)C)C(=O)N[C@@H](CC(N)=O)C(=O)N[C@@H](C)C(=O)N1)C(=O)N[C@@H](Cc1c[nH]c2ccccc12)C(=O)N[C@@H](Cc1c[nH]cn1)C(N)=O [HTag-DD5-o, (HTag)-VcNAcFHIWH] ({NH(CH2CH2O)2(CH2)6Cl-Suc}-V[dC]NA[dC]FHIWH-NH2; linker 2-5 via oXylylene), the “inhibition of HTag-TAMRA fluorescence (cytosolic access), result in words” value [6] was “dose-dependent suppression of the HTag-TAMRA signal”.

Reference: patent US10993983B2, “Cyclic peptide epitopes and small-molecule mimics for inducing autophagy” (TRUSTEES OF TUFTS COLLEGE, priority 2016, dated 2021)
